Reference: ChEMBL document CHEMBL2375249, “Synthesis and biological evaluation of novel pyrrolidine-2,5-dione derivatives as potential antidepressant agents. Part 1” (Eur J Med Chem, 2013)
Activity calls are given as the source filed them. No cut-off for these calls is given here.

Experiments:
[1] = target: Sodium-dependent serotonin transporter (Rattus norvegicus, UniProt P31652); assay: Displacement of [3H]-citalopram from SERT in rat cerebral cortex after 1 hr by liquid scintillation counting analysis; assay type: tissue-based
[2] = target: T1, 5-hydroxytryptamine receptor 1A (Rattus norvegicus, UniProt P19327); assay: Displacement of [3H]-8-OH-DPAT from 5HT1A receptor in rat hippocampal membranes after 20 mins; assay type: cell membranes, Hippocampus, Membrane
T1 sequence (P19327 whole entry): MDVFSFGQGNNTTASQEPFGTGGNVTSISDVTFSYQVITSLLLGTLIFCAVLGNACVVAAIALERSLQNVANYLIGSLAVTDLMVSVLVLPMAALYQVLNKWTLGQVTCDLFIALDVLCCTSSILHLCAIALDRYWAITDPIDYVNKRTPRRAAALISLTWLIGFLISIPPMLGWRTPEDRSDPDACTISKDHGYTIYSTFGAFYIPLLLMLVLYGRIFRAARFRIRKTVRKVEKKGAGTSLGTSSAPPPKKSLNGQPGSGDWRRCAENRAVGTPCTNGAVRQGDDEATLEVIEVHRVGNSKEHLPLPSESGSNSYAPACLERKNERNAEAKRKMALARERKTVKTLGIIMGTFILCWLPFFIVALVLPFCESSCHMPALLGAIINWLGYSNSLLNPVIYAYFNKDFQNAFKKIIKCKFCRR

D(2) dopamine receptor = D(2) dopamine receptor (Homo sapiens, UniProt P14416); assay: Displacement of [3H]-raclopride from human dopamine D2L receptor expressed in HEK293 cells after 1 hr; assay type: cell-based
[3] = target: 5-hydroxytryptamine receptor 7 (Homo sapiens, UniProt P34969); assay: Displacement of [3H]-5CT from human 5HT7 receptor expressed in HEK293 cells after 1 hr; assay type: cell-based
[4] = target: 5-hydroxytryptamine receptor 2A (Rattus norvegicus, UniProt P14842); assay: Displacement of [3H]-ketanserin from 5HT2A in rat cerebral cortex 20 mins by liquid scintillation counting analysis; assay type: tissue-based
[5] = target: 5-hydroxytryptamine receptor 6 (Homo sapiens, UniProt P50406); assay: Displacement of [3H]-LSD from human 5HT6 receptor expressed in HEK293 cells after 1 hr; assay type: cell-based
Mus musculus [6] = assay: Induction of hypothermia in CD1 mouse assessed as change in rectal body temperature at 2.5 mg/kg, ip administered 30 mins prior to test measured after 120 mins relative to control; assay type: functional, organism-based; set-up: dose 2.5 mg/kg
Mus musculus [7] = assay: Induction of hypothermia in CD1 mouse assessed as change in rectal body temperature at 5 mg/kg, ip administered 30 mins prior to test measured after 60 mins relative to control; assay type: functional, organism-based; set-up: dose 5 mg/kg
Mus musculus [8] = assay: Induction of hypothermia in CD1 mouse assessed as change in rectal body temperature at 2.5 mg/kg, ip administered 30 mins prior to test measured after 30 mins in presence of WAY 100635 relative to control; assay type: functional, organism-based; set-up: dose 2.5 mg/kg
Mus musculus [9] = assay: Induction of hypothermia in CD1 mouse assessed as change in rectal body temperature at 5 mg/kg, ip administered 30 mins prior to test measured after 120 mins relative to control; assay type: functional, organism-based; set-up: dose 5 mg/kg
Mus musculus [10] = assay: Induction of hypothermia in CD1 mouse assessed as change in rectal body temperature at 2.5 mg/kg, ip administered 30 mins prior to test measured after 30 mins relative to control; assay type: functional, organism-based; set-up: dose 2.5 mg/kg
Mus musculus [11] = assay: Induction of hypothermia in CD1 mouse assessed as change in rectal body temperature at 2.5 mg/kg, ip administered 30 mins prior to test measured after 90 mins relative to control; assay type: functional, organism-based; set-up: dose 2.5 mg/kg
Mus musculus [12] = assay: Induction of hypothermia in CD1 mouse assessed as change in rectal body temperature at 2.5 mg/kg, ip administered 30 mins prior to test measured after 60 mins in presence of WAY 100635 relative to control; assay type: functional, organism-based; set-up: dose 2.5 mg/kg
Mus musculus [13] = assay: Induction of hypothermia in CD1 mouse assessed as change in rectal body temperature at 5 mg/kg, ip administered 30 mins prior to test measured after 90 mins relative to control; assay type: functional, organism-based; set-up: dose 5 mg/kg
Mus musculus [14] = assay: Induction of hypothermia in CD1 mouse assessed as change in rectal body temperature at 2.5 mg/kg, ip administered 30 mins prior to test measured after 60 mins relative to control; assay type: functional, organism-based; set-up: dose 2.5 mg/kg
Mus musculus [15] = assay: Induction of hypothermia in CD1 mouse assessed as change in rectal body temperature at 5 mg/kg, ip administered 30 mins prior to test measured after 30 mins relative to control; assay type: functional, organism-based; set-up: dose 5 mg/kg
Mus musculus [16] = assay: Antidepressant activity in CD1 mouse assessed as reduction in immobility time at 1 to 2 mg/kg, sc measured during final 4 mins in 6 mins test session after 2 mins habituation period by forced swimming test; assay type: functional, organism-based
Mus musculus [17] = assay: Induction of hypothermia in CD1 mouse assessed as change in rectal body temperature at 5 mg/kg, ip administered 30 mins prior to test measured after 60 mins in presence of WAY 100635 relative to control; assay type: functional, organism-based; set-up: dose 5 mg/kg
Mus musculus [18] = assay: Induction of hypothermia in CD1 mouse assessed as change in rectal body temperature at 5 mg/kg, ip administered 30 mins prior to test measured after 30 mins in presence of WAY 100635 relative to control; assay type: functional, organism-based; set-up: dose 5 mg/kg
Mus musculus [19] = assay: Antidepressant activity in CD1 mouse assessed as reduction in immobility time at 2.5 to 5 mg/kg, ip measured during final 4 mins in 6 mins test session after 2 mins habituation period by forced swimming test; assay type: functional, organism-based

Chain of Sodium-dependent serotonin transporter (P31652 whole entry): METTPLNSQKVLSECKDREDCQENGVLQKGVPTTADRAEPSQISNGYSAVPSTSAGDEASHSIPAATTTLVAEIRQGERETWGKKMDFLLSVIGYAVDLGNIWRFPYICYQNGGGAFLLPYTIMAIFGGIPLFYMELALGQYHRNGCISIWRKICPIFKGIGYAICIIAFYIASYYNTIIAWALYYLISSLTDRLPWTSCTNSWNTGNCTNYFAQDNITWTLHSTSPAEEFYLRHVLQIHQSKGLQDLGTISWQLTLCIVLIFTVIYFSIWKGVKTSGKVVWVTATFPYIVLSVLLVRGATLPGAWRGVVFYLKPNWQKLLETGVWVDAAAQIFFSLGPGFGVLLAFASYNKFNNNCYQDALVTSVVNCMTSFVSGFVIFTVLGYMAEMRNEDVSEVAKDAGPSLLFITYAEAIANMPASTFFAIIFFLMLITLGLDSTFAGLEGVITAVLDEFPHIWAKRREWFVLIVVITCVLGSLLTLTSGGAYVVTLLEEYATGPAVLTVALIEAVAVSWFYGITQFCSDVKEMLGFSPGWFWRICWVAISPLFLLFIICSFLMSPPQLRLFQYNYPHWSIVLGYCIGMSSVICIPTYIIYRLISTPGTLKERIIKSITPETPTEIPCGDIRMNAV
Chain of D(2) dopamine receptor (P14416 whole entry): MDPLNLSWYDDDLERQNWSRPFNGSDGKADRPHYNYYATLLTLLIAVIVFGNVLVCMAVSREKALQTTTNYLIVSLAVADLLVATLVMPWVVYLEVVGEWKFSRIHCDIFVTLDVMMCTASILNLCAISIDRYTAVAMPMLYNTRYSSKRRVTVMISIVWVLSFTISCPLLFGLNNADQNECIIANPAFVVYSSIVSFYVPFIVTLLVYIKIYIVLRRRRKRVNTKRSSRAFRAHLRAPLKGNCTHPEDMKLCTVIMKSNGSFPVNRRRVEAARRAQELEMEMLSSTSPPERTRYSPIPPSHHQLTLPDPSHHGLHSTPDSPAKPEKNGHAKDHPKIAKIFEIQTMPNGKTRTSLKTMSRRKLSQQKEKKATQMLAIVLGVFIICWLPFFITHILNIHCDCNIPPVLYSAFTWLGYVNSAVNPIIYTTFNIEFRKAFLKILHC
Chain of 5-hydroxytryptamine receptor 7 (P34969 whole entry): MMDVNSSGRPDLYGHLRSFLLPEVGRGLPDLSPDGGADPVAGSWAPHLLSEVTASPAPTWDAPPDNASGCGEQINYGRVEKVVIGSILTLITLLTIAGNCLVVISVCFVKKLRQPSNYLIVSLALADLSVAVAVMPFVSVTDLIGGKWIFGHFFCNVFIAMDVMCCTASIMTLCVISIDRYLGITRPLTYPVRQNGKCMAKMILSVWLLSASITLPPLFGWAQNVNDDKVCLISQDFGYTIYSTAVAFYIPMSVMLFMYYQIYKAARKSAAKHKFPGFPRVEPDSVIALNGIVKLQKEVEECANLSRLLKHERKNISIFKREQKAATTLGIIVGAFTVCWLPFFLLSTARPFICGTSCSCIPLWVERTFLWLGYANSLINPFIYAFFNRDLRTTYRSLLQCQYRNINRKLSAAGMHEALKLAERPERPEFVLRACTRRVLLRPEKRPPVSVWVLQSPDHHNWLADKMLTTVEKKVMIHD
Chain of 5-hydroxytryptamine receptor 2A (P14842 whole entry): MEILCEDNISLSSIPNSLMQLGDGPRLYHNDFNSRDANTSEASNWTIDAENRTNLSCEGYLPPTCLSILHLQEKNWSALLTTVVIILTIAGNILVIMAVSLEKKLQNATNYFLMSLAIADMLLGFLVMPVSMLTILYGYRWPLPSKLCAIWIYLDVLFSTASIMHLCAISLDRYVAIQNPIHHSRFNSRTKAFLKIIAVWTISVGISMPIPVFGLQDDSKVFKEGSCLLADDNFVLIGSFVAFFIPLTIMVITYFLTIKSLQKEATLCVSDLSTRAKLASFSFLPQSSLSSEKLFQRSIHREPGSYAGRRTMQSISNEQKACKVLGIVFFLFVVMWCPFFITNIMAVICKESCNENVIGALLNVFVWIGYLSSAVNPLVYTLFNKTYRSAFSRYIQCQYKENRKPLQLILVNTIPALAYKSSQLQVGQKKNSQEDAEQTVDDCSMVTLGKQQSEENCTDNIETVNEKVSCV
Chain of 5-hydroxytryptamine receptor 6 (P50406 whole entry): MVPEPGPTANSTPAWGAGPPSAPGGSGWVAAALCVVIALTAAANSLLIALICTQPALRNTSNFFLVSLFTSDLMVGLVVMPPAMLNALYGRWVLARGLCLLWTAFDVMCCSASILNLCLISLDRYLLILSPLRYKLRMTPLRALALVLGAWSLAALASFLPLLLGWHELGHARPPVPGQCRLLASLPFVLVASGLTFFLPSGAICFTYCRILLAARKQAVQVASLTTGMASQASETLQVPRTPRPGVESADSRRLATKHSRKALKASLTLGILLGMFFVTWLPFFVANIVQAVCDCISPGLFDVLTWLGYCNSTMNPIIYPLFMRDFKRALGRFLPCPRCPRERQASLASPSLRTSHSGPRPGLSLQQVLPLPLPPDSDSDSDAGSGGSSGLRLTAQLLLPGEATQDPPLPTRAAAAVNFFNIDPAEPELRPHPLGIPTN

O=C1CC(c2c[nH]c3ccccc23)C(=O)N1CCN1CC=C(c2c[nH]c3ccc(Br)cc23)CC1 (racemic)
Ki [1]: 673 nM | Ki [2]: 324 nM

O=C1CC(c2c[nH]c3ccccc23)C(=O)N1CCCN1CC=C(c2c[nH]c3ccc(Cl)cc23)CC1 (racemic)
Ki [1]: 50.7 nM | Ki [2]: 285 nM

O=C1CC(c2c[nH]c3ccccc23)C(=O)N1CCN1CCC(c2c[nH]c3ccc(F)cc23)CC1 (racemic)
Ki (D(2) dopamine receptor): 80 nM | Ki [1]: 381 nM | Ki [3]: 1160 nM | Ki [2]: 8.1 nM | Ki [4]: 384 nM | Ki [5]: 1150 nM

O=C1CC(c2c[nH]c3ccccc23)C(=O)N1CCCCN1CCC(c2c[nH]c3ccccc23)CC1 (racemic)
deltaT (Mus musculus [6]): -1.2 °C | deltaT (Mus musculus [7]): -2.8 °C | Ki [1]: 5.7 nM | deltaT (Mus musculus [8]): -1 °C | deltaT (Mus musculus [9]): -2.1 °C | deltaT (Mus musculus [10]): -1.3 °C | deltaT (Mus musculus [11]): -1.3 °C | deltaT (Mus musculus [12]): -1.1 °C | Ki [2]: 15.7 nM | deltaT (Mus musculus [13]): -2.1 °C | deltaT (Mus musculus [14]): -1.5 °C | deltaT (Mus musculus [15]): -2.4 °C

O=C1CC(c2c[nH]c3ccccc23)C(=O)N1CCCN1CC=C(c2c[nH]c3ccccc23)CC1 (racemic)
Ki [1]: 4 nM | Ki [2]: 161 nM

COc1ccc2[nH]cc(C3CCN(CCN4C(=O)CC(c5c[nH]c6ccccc56)C4=O)CC3)c2c1 (racemic)
Ki [1]: 1850 nM | Ki [2]: 352 nM

COc1ccc2[nH]cc(C3CCN(CCCN4C(=O)CC(c5c[nH]c6ccccc56)C4=O)CC3)c2c1 (racemic)
Ki (D(2) dopamine receptor): 343 nM | Ki [1]: 221 nM | Ki [3]: 589 nM | Ki [2]: 32.6 nM | Ki [4]: 11600 nM | Ki [5]: 264 nM

COc1ccc2[nH]cc(C3CCN(CCCCN4C(=O)CC(c5c[nH]c6ccccc56)C4=O)CC3)c2c1 (racemic)
Ki (D(2) dopamine receptor): 161 nM | Ki [1]: 210 nM | Ki [3]: 345 nM | Ki [2]: 2.2 nM | Ki [4]: 498 nM | Ki [5]: 159 nM

COc1ccc2[nH]cc(C3=CCN(CCN4C(=O)CC(c5c[nH]c6ccccc56)C4=O)CC3)c2c1 (racemic)
Ki [1]: 784 nM | Ki [2]: 1740 nM

O=C1CC(c2c[nH]c3ccccc23)C(=O)N1CCN1CC=C(c2c[nH]c3ccc(Cl)cc23)CC1 (racemic)
Ki [1]: 96.7 nM | Ki [2]: 406 nM

COc1ccc2[nH]cc(C3=CCN(CCCN4C(=O)CC(c5c[nH]c6ccccc56)C4=O)CC3)c2c1 (racemic)
Ki [1]: 125 nM | Ki [2]: 210 nM

O=C1CC(c2c[nH]c3ccccc23)C(=O)N1CCN1CC=C(c2c[nH]c3ccc(F)cc23)CC1 (racemic)
Ki [1]: 68.4 nM | Ki [2]: 372 nM

O=C1CC(c2c[nH]c3ccccc23)C(=O)N1CCN1CC=C(c2c[nH]c3ccccc23)CC1 (racemic)
Ki [1]: 33.8 nM | Ki [2]: 250 nM

O=C1CC(c2c[nH]c3ccccc23)C(=O)N1CCCCN1CC=C(c2c[nH]c3ccc(Cl)cc23)CC1 (racemic)
Ki [1]: 74.4 nM | Ki [2]: 68.7 nM

O=C1CC(c2c[nH]c3ccccc23)C(=O)N1CCCN1CC=C(c2c[nH]c3ccc(F)cc23)CC1 (racemic)
Ki [1]: 5.2 nM | Ki [2]: 106 nM

CCCN(CCC)C1CCc2cccc(O)c2C1 (configuration not stated)
Activity (Mus musculus [16]): Active

O=C1CC(c2c[nH]c3ccccc23)C(=O)N1CCCCN1CCC(c2c[nH]c3ccc(F)cc23)CC1 (racemic)
Ki (D(2) dopamine receptor): 14 nM | Ki [1]: 505 nM | Ki [3]: 196 nM | Ki [2]: 7.5 nM | Ki [4]: 71 nM | Ki [5]: 63 nM

O=C1CC(c2c[nH]c3ccccc23)C(=O)N1CCCN1CCC(c2c[nH]c3ccc(F)cc23)CC1 (racemic)
Ki [1]: 215 nM | Ki [2]: 122 nM

O=C1CC(c2c[nH]c3ccccc23)C(=O)N1CCCCN1CC=C(c2c[nH]c3ccc(F)cc23)CC1 (racemic)
deltaT (Mus musculus [6]): -0.7 °C | deltaT (Mus musculus [7]): -1.5 °C | Ki [1]: 20 nM | deltaT (Mus musculus [17]): -0.2 °C | deltaT (Mus musculus [9]): -1.2 °C | deltaT (Mus musculus [18]): -0.5 °C | deltaT (Mus musculus [10]): -0.6 °C | deltaT (Mus musculus [11]): -0.7 °C | Ki [2]: 17.6 nM | deltaT (Mus musculus [13]): -1.3 °C | deltaT (Mus musculus [14]): -0.7 °C | deltaT (Mus musculus [15]): -1.6 °C | Activity (Mus musculus [19]): inactive

COc1ccc2[nH]cc(C3=CCN(CCCCN4C(=O)CC(c5c[nH]c6ccccc56)C4=O)CC3)c2c1 (racemic)
deltaT (Mus musculus [6]): -0.4 °C | deltaT (Mus musculus [7]): -1.1 °C | Ki [1]: 46.2 nM | deltaT (Mus musculus [17]): -0.3 °C | deltaT (Mus musculus [9]): -0.9 °C | deltaT (Mus musculus [18]): -0.4 °C | deltaT (Mus musculus [10]): -0.5 °C | deltaT (Mus musculus [11]): -0.7 °C | Ki [2]: 3.2 nM | deltaT (Mus musculus [13]): -1.1 °C | deltaT (Mus musculus [14]): -0.5 °C | deltaT (Mus musculus [15]): -1.1 °C | Activity (Mus musculus [19]): inactive

O=C1CC(c2c[nH]c3ccccc23)C(=O)N1CCN1CCC(c2c[nH]c3ccccc23)CC1 (racemic)
Ki [1]: 56 nM | Ki [2]: 364 nM

O=C1CC(c2c[nH]c3ccccc23)C(=O)N1CCCN1CC=C(c2c[nH]c3ccc(Br)cc23)CC1 (racemic)
Ki [1]: 182 nM | Ki [2]: 111 nM

O=C1CC(c2c[nH]c3ccccc23)C(=O)N1CCCN1CCC(c2c[nH]c3ccccc23)CC1 (racemic)
Ki [1]: 354 nM | Ki [2]: 68.5 nM

O=C1CC(c2c[nH]c3ccccc23)C(=O)N1CCCCN1CC=C(c2c[nH]c3ccc(Br)cc23)CC1 (racemic)
Ki [1]: 208 nM | Ki [2]: 59.1 nM

O=C1CC(c2c[nH]c3ccccc23)C(=O)N1CCCCN1CC=C(c2c[nH]c3ccccc23)CC1 (racemic)
deltaT (Mus musculus [6]): -0.9 °C | deltaT (Mus musculus [7]): -1.4 °C | Ki [1]: 11.3 nM | deltaT (Mus musculus [17]): -1.2 °C | deltaT (Mus musculus [9]): -1.4 °C | deltaT (Mus musculus [18]): -1.2 °C | deltaT (Mus musculus [10]): -0.7 °C | deltaT (Mus musculus [11]): -0.9 °C | Ki [2]: 12.5 nM | deltaT (Mus musculus [13]): -1.5 °C | deltaT (Mus musculus [14]): -0.6 °C | deltaT (Mus musculus [15]): -1.5 °C
